Laboratory results reported in the kinase profiling compilation of Christmann-Franck et al. (2016).

Experiments:
Experiment in all cases: radiometric filter-binding kinase assay
[1] = biological target: CDK2 CCNA2 (human) (UniProt P20248+P24941)
[2] = biological target: CSNK2A1 (human) (UniProt P68400)
[3] = biological target: YES1 (human) (UniProt P07947)
[4] = biological target: MAP2K1 (human) (UniProt Q02750)
[5] = biological target: PRKCZ (human) (UniProt Q05513)
[6] = biological target: JAK2 JH1 JH2 (human) (UniProt O60674)
[7] = biological target: CaMK1 (human) (UniProt Q14012)
[8] = biological target: DYRK1A (human) (UniProt Q13627)
[9] = biological target: PIM2 (human) (UniProt Q9P1W9)
PIM2 (human), sequence (Q9P1W9 whole entry, looked up): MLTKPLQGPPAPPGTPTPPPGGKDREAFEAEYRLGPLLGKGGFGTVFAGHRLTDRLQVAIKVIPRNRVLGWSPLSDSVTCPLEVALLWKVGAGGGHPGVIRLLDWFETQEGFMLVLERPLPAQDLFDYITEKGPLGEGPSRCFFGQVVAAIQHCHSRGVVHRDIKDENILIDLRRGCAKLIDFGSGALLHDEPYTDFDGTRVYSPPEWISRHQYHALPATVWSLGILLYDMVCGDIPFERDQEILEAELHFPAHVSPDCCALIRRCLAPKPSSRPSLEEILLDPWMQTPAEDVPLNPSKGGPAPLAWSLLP

[10] = biological target: PRKACA (human) (UniProt P17612)
[11] = biological target: MAPK10 (human) (UniProt P53779)
[12] = biological target: MAPK13 (human) (UniProt O15264)
[13] = biological target: RIPK2 (human) (UniProt O43353)
RIPK2 (human), sequence (O43353 whole entry, looked up): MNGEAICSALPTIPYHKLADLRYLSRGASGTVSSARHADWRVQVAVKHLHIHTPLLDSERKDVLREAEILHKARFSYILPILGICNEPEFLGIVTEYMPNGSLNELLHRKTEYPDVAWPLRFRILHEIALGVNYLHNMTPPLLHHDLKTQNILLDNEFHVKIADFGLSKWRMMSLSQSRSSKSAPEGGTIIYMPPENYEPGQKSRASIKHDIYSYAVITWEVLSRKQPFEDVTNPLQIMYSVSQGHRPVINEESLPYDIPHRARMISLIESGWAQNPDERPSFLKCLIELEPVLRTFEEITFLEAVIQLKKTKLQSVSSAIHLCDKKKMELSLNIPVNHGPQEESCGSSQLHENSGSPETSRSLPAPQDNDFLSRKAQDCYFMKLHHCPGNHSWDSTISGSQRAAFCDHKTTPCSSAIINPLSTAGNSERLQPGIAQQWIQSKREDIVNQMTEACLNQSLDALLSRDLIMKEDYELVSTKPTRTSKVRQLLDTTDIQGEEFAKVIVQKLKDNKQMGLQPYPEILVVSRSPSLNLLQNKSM

[14] = biological target: CHEK1 (human) (UniProt O14757)
[15] = biological target: MST4 (human) (UniProt Q9P289)
[16] = biological target: IGF1R (human) (UniProt P08069)
IGF1R (human), sequence (P08069 whole entry, looked up): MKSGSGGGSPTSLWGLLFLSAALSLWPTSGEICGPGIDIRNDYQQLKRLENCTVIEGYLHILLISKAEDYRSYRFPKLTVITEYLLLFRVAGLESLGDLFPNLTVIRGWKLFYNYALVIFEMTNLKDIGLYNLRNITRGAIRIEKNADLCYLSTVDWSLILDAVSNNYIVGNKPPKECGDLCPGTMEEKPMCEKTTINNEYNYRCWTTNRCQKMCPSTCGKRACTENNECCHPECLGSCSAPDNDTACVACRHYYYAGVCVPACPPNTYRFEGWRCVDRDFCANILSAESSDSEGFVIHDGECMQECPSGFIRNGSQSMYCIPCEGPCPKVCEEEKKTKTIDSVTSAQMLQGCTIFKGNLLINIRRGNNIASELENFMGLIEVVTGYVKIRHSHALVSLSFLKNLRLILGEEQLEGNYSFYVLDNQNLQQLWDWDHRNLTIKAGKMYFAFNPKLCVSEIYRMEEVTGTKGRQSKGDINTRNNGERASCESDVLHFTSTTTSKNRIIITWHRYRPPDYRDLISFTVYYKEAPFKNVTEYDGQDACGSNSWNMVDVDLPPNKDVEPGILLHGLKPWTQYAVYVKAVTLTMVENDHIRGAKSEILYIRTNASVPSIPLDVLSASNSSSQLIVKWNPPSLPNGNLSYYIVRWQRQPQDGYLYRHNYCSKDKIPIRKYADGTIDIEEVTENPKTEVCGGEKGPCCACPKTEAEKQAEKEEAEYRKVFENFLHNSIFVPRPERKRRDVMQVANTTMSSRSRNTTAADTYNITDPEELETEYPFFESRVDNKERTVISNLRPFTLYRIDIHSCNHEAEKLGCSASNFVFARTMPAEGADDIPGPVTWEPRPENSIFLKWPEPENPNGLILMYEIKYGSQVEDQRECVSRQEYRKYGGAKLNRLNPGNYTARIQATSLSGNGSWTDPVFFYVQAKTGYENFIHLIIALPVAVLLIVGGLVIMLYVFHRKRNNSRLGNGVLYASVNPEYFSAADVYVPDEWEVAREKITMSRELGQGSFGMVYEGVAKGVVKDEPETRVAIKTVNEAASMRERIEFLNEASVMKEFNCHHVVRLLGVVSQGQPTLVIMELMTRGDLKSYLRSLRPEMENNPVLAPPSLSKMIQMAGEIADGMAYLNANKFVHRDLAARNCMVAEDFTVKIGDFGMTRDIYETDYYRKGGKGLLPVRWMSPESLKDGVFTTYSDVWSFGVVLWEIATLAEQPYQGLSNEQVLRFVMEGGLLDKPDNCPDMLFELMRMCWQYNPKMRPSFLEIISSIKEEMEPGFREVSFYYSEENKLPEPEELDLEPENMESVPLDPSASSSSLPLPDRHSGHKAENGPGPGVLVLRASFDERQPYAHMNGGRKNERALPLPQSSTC

[17] = system: AKT2 (human), P31751 [S474D]
[18] = biological target: PHKG1 (human) (UniProt Q16816)
PHKG1 (human), sequence (Q16816 whole entry, looked up): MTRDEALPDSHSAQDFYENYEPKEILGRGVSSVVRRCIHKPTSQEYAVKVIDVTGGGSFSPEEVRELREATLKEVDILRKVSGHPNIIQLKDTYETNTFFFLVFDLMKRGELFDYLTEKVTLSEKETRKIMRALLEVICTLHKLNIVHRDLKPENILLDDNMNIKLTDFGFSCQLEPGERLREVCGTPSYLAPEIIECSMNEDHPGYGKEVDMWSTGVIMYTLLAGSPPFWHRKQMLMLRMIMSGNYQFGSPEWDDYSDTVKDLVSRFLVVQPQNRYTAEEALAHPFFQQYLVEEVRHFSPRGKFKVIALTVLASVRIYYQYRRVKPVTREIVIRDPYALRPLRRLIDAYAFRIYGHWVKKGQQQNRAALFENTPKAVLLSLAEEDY

[19] = biological target: MARK3 (human) (UniProt P27448)
[20] = biological target: EPHB3 (human) (UniProt P54753)
[21] = biological target: SRC (human) (UniProt P12931)
[22] = biological target: PAK4 (human) (UniProt O96013)
PAK4 (human), sequence (O96013 whole entry, looked up): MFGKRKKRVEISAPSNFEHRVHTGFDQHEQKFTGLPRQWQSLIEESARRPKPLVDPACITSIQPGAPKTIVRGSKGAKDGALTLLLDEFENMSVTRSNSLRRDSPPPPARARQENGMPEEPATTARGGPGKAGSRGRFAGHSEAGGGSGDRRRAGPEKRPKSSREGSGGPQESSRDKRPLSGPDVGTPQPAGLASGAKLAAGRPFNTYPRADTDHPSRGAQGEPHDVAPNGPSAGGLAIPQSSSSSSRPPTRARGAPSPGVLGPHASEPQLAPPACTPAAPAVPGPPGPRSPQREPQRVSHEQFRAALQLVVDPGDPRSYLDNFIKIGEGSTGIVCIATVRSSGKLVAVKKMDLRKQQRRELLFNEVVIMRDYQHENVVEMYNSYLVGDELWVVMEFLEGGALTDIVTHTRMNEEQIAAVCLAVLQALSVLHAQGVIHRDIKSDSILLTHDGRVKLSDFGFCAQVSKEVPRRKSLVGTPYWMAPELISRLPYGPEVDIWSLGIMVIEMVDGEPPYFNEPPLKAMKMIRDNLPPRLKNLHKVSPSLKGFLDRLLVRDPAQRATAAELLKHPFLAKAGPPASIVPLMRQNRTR

[23] = biological target: INSR (human) (UniProt P06213)
[24] = biological target: MINK1 (human) (UniProt Q8N4C8)
[25] = biological target: INSRR (human) (UniProt P14616)
INSRR (human), sequence (P14616 whole entry, looked up): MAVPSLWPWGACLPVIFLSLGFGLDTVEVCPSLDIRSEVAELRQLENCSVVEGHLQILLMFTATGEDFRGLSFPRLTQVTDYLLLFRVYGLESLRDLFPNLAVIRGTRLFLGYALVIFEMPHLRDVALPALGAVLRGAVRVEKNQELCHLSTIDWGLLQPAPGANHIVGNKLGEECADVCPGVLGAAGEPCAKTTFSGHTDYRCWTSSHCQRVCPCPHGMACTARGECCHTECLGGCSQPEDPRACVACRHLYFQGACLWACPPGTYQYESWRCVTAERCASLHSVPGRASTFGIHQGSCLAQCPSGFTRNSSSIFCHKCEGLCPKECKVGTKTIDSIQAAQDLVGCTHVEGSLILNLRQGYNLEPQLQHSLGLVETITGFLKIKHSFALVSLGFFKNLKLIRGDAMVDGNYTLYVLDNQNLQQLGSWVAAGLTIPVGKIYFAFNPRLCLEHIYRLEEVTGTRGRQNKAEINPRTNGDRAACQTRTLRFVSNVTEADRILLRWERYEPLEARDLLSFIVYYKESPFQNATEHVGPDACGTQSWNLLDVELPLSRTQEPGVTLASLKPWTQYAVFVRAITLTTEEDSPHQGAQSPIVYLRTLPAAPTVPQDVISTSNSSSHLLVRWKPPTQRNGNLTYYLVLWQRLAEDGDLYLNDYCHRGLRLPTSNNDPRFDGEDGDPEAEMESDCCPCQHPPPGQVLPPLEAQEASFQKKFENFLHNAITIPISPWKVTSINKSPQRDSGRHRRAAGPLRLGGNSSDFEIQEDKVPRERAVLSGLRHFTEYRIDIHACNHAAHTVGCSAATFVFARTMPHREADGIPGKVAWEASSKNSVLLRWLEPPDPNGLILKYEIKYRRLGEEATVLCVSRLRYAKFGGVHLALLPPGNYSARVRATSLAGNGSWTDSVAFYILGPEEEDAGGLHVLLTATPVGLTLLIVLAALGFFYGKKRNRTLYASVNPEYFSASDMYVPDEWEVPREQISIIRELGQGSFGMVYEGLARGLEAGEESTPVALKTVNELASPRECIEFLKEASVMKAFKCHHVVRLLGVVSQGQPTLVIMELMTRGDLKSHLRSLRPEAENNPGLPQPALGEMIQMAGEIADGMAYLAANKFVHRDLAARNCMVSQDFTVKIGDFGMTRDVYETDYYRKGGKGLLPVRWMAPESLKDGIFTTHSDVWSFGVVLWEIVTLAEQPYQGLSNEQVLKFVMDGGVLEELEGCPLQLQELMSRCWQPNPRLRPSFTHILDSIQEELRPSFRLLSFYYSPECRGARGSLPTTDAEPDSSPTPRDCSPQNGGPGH

[26] = biological target: AURKB (human) (UniProt Q96GD4)
[27] = system: PRKAA1 or PRKAA2 (rat); details: accession and sequence are those of the human protein
[28] = system: LCK (mouse); details: accession and sequence are those of the human protein
[29] = biological target: NTRK1 (human) (UniProt P04629)
[30] = biological target: MAP3K11 (human) (UniProt Q16584)
[31] = biological target: MKNK1 (human) (UniProt Q9BUB5)
[32] = biological target: MARK4 (human) (UniProt Q96L34)
[33] = biological target: MAP3K9 (human) (UniProt P80192)
[34] = biological target: CAMKK2 (human) (UniProt Q96RR4)
[35] = biological target: NUAK1 (human) (UniProt O60285)
[36] = biological target: SYK (human) (UniProt P43405)

YES1 (human), sequence (P07947 whole entry, looked up): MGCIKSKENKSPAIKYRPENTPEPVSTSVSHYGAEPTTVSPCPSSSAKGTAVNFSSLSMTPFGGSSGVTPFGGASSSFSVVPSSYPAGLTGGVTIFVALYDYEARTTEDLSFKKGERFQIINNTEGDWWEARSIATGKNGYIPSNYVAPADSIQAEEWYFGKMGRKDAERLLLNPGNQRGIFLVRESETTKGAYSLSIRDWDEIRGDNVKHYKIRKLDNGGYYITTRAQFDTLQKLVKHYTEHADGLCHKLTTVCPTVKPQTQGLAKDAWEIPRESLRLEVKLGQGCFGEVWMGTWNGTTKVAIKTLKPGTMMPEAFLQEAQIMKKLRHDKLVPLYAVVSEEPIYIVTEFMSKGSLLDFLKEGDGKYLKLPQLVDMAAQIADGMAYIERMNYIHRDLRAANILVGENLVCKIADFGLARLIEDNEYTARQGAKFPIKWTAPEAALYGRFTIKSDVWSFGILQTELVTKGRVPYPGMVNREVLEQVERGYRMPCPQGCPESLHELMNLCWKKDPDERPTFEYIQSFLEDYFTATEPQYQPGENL

- residual activity ([1]; compound 1.0 µM): 91%
- residual activity ([1]; compound 10.0 µM): 105%
- residual activity ([2]; compound 1.0 µM): 30%
- residual activity ([2]; compound 10.0 µM): 6%
- residual activity ([3]; compound 1.0 µM): 91%
- residual activity ([3]; compound 10.0 µM): 87%
- residual activity ([4]; compound 1.0 µM): 85%
- residual activity ([4]; compound 10.0 µM): 78%
- residual activity ([5]; compound 1.0 µM): 100%
- residual activity ([5]; compound 10.0 µM): 67%
- residual activity ([6]; compound 1.0 µM): 97%
- residual activity ([6]; compound 10.0 µM): 74%
- residual activity ([7]; compound 1.0 µM): 105%
- residual activity ([7]; compound 10.0 µM): 85%
- residual activity ([8]; compound 1.0 µM): 21%
- residual activity ([8]; compound 10.0 µM): 3%
- residual activity ([9]; compound 1.0 µM): 85%
- residual activity ([9]; compound 10.0 µM): 14%
- residual activity ([10]; compound 1.0 µM): 108%
- residual activity ([10]; compound 10.0 µM): 72%
- residual activity ([11]; compound 1.0 µM): 105%
- residual activity ([11]; compound 10.0 µM): 72%
- residual activity ([12]; compound 1.0 µM): 92%
- residual activity ([12]; compound 10.0 µM): 54%
- residual activity ([13]; compound 1.0 µM): 94%
- residual activity ([13]; compound 10.0 µM): 22%
- residual activity ([14]; compound 1.0 µM): 79%
- residual activity ([14]; compound 10.0 µM): 87%
- residual activity ([15]; compound 1.0 µM): 93%
- residual activity ([15]; compound 10.0 µM): 61%
- residual activity ([16]; compound 1.0 µM): 107%
- residual activity ([16]; compound 10.0 µM): 95%
- residual activity ([17]; compound 1.0 µM): 77%
- residual activity ([17]; compound 10.0 µM): 62%
- residual activity ([18]; compound 1.0 µM): 100%
- residual activity ([18]; compound 10.0 µM): 84%
- residual activity ([19]; compound 1.0 µM): 94%
- residual activity ([19]; compound 10.0 µM): 71%
- residual activity ([20]; compound 1.0 µM): 93%
- residual activity ([20]; compound 10.0 µM): 96%
- residual activity ([21]; compound 1.0 µM): 85%
- residual activity ([21]; compound 10.0 µM): 92%
- residual activity ([22]; compound 1.0 µM): 89%
- residual activity ([22]; compound 10.0 µM): 54%
- residual activity ([23]; compound 1.0 µM): 111%
- residual activity ([23]; compound 10.0 µM): 108%
- residual activity ([24]; compound 1.0 µM): 84%
- residual activity ([24]; compound 10.0 µM): 21%
- residual activity ([25]; compound 1.0 µM): 79%
- residual activity ([25]; compound 10.0 µM): 26%
- residual activity ([26]; compound 1.0 µM): 84%
- residual activity ([26]; compound 10.0 µM): 58%
- residual activity ([27]; compound 1.0 µM): 77%
- residual activity ([27]; compound 10.0 µM): 49%
- residual activity ([28]; compound 1.0 µM): 113%
- residual activity ([28]; compound 10.0 µM): 99%
- residual activity ([29]; compound 1.0 µM): 83%
- residual activity ([29]; compound 10.0 µM): 89%
- residual activity ([30]; compound 1.0 µM): 81%
- residual activity ([30]; compound 10.0 µM): 25%
- residual activity ([31]; compound 1.0 µM): 100%
- residual activity ([31]; compound 10.0 µM): 84%
- residual activity ([32]; compound 1.0 µM): 86%
- residual activity ([32]; compound 10.0 µM): 78%
- residual activity ([33]; compound 1.0 µM): 95%
- residual activity ([33]; compound 10.0 µM): 42%
- residual activity ([34]; compound 1.0 µM): 84%
- residual activity ([34]; compound 10.0 µM): 23%
- residual activity ([35]; compound 1.0 µM): 92%
- residual activity ([35]; compound 10.0 µM): 78%
- residual activity ([36]; compound 1.0 µM): 107%
- residual activity ([36]; compound 10.0 µM): 95%
Structure (SMILES): NC(=O)c1ccc(-c2ccc(Oc3cncc4sc(-c5nn[nH]n5)cc34)cc2)cc1
